The text below walks through data of patent US20240124520A1, “N-ACYLATED HISTIDINE DIPEPTIDES AS ANTICANCER AGENTS” (THE BOARD OF TRUSTEES OF THE LELAND STANFORD JUNIOR …, priority 2019, published 2024).

For orientation: IC50 means the midpoint of a concentration-inhibition curve. Higher therefore signals a need for much substance.

Non-standard residues stand in square brackets, D forms with d. Residues, ends and D or L forms follow the SMILES beside them. *: point of attachment. Palmitoyl = CCCCCCCCCCCCCCCC(=O)*

Common to all, as to type: cell-based
Experiment [1] deals with SK-N-SH human neuroblastoma cells. Nature of the experiment: Cell Titer Blue in vitro cell viability assay, SK-N-SH. The note with it: 72 h, SK-N-SH (DMEM), 3 days at 37° C. The method, then: (§1) FIG. 15: Dose Response curve for MBC0179 with SK—N—SH cells. Compound MBC0179 was incubated with SK—N—SH human neuroblastoma cells at the indicated concentrations for 3 days at 37° C. prior to Cell Titer Blue fluorescence-based cell viability assay. Normalized cell viability data, expressed as a percentage, are averaged from three biological replicates and standard error represented by error bars for each averaged data point (empty squares). The compound concentrations are represented on log scale on the x-axis in μM units. Data were analyzed using free software called DrFit, as described in Nature Scientific Reports, Article number: 14701, (2015). […]
(§2) The Cell Titer Blue reagent (available from Promega, Inc.) is a buffered solution containing resazurin, a compound that is converted to resorufin, a detectable fluorescent product, by metabolically active cells. The fluorescence intensity of resorufin product therefore serves as a proportional measure of the number of viable cells, permitting changes in cell viability within cancer or other cell lines to be monitored in response to the addition of cytotoxic or cytostatic agents. […] Metastases to the lungs may be conveniently quantified by a well-established clonogenic assay. […]
(In general: The colour change of resazurin is a common sign of viable cells or microbes.)

The subject of experiment [2] is OVCAR-3 human ovarian cancer cells. As to the kind of experiment: Cell Titer Blue in vitro cell viability assay, OVCAR-3. The note with it: 72 h, OVCAR-3 (RPMI), 3 days at 37° C. The method, then: as §1, with “14:” for “15:”, “OVCAR-3” for “SK—N—SH”, “ovarian cancer” for “neuroblastoma”
as §2

In experiment [3] the test system is 4T1 mouse triple-negative breast cancer cells. As to the kind of experiment: Cell Titer Blue in vitro cell viability assay, 4T1. The note with it: 72 h, 4T1 (RPMI), 3 days at 37° C. The method, then:
as §1, with “16:” for “15:”, “4T1” for “SK—N—SH”, “4T1 mouse triple-negative breast cancer” for “SK—N—SH human neuroblastoma”
as §2

Experiment [4] relates to K-562 human chronic myelogenous leukemia cells. Nature of the experiment: Cell Titer Blue in vitro cell viability assay, K-562. The note with it: 72 h, K562 (DMEM), in suspension, 3 days at 37° C. As to the method: as §1, with “11:” for “15:”, “K-562” for “SK—N—SH”, “chronic myelogenous leukemia cells, a non-adherent cell line,” for “neuroblastoma cells”
as §2

For the molecule `CCCCCCCCCCCCCCCC(=O)N[C@H](Cc1c[nH]cn1)C(=O)N[C@@H](C(=O)OCC)C(C)C` [Compound 5, N-[N-(1-oxohexadecyl)-D-histidyl]-D-valine ethyl ester] (Palmitoyl-[dH]-[dV]-OEt), the IC50 in experiment [1] amounted to 35 µM; in experiment [2], 9.22 µM; in experiment [3] it was 25.5 µM; in experiment [4], 6.11 µM.
